Results taken from PubChem BioAssay AID2393 (NMMLSC, 2010).
Activity calls are given as the source filed them.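 Rule for the calls: active = none, because compounds meeting the potency rule were filed inconclusive for hitting several proteins; inconclusive = EC50 under 20 µM with over 15% binding change; inactive = the rest.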

How the values were obtained:
Assay in all cases: small GTPase panel, fluorescent GTP binding blockade – biochemical, Mg buffer, constant GTP, RhoA, Rac1, Cdc42, mechanism study for Ras-family GTPase inhibitor project, profiling panel (AID 2393);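 for EC50: EC50 marks half change in GTP binding and may reflect gain or loss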
[1] = molecular target: Cell division control protein 42 homolog (Homo sapiens) (UniProt P60953); settings: GST-GTPase beads, BODIPY-GTP binding, flow cytometry; for GTP binding remaining (% of DMSO): at 100 µM (top of the series)
[2] = molecular target: Ras-related C3 botulinum toxin substrate 1 (Homo sapiens) (UniProt P63000); settings: GST-GTPase beads, BODIPY-GTP binding, flow cytometry; for GTP binding remaining (% of DMSO): at 100 µM (top of the series)
[3] = molecular target: Transforming protein RhoA (Homo sapiens) (UniProt P61586); settings: GST-GTPase beads, BODIPY-GTP binding, flow cytometry, at 100 µM (top of the series)

Compound | GTP binding remaining (% of DMSO) ([1]; Cdc42ACT) | GTP binding remaining (% of DMSO) ([1]; Cdc42WT) | GTP binding remaining (% of DMSO) ([2]; Rac1ACT) | GTP binding remaining (% of DMSO) ([2]; Rac1WT) | GTP binding remaining (% of DMSO) ([3]; RhoACT) | GTP binding remaining (% of DMSO) ([3]; RhoWT) | EC50 ([1]; Cdc42ACT) [µM] | EC50 ([1]; Cdc42WT) [µM] | EC50 ([2]; Rac1WT)
COc1ccc(C2CC(c3ccc(C(F)(F)F)cc3)=NN2c2ccc(S(N)(=O)=O)cc2)cc1 (configuration not stated) | inactive | inactive | inactive | inactive | inactive | inactive | – | – | –
NS(=O)(=O)c1ccc(N2N=C(c3ccccc3)CC2c2ccc(Cl)cc2)cc1 (configuration not stated) | – | – | inactive | – | inactive | inactive | 4.22 | 3.94 | inactive
